Source: ChEMBL document CHEMBL3351249, “Potent cholesteryl ester transfer protein inhibitors of reduced lipophilicity: 1,1'-spiro-substituted hexahydrofuroquinoline derivatives” (J Med Chem, 2014)

Biological target: T1, Cholesteryl ester transfer protein (Homo sapiens, UniProt P11597)
T1 sequence (P11597 whole entry): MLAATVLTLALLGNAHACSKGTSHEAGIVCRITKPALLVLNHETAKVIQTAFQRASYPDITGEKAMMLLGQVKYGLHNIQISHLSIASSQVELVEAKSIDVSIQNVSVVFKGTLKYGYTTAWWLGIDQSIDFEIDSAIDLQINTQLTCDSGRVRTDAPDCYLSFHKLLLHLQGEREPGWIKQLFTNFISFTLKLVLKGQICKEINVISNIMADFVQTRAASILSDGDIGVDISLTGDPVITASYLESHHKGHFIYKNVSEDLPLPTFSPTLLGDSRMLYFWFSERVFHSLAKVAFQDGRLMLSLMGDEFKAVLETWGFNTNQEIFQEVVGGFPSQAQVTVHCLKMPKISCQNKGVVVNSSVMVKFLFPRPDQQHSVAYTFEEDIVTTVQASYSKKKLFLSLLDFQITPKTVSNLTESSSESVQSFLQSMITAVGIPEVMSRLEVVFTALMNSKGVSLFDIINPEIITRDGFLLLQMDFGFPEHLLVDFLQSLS
Test: Inhibition of human recombinant CETP by fluorescence transfer assay

Structure (SMILES) | IC50 [µM]
CC(C)c1nc2c(c3c1[C@H](c1ccc(C(F)(F)F)cc1)OC31CCOCC1)[C@H](O)CC(C)(C)C2 | 0.576
CC(C)c1nc2c(c3c1[C@@H](c1ccc(C(C)(C)C)cc1)OC31CCCC1)[C@@H](O)CC(C)(C)C2 | 0.029
CC(C)c1nc2c(c3c1[C@@H](c1ccc(C(F)(F)F)nc1)OC31CCCC1)[C@@H](O)CC(C)(C)C2 | 0.135
CC(C)c1nc2c(c3c1[C@@H](c1ccc(C(F)(F)F)cc1)OC31CCCC1)[C@@H](O)CC(C)(C)C2 | 0.051
CC(C)c1nc2c(c3c1[C@@H](c1ccc(C(F)(F)F)cc1)OC3(C)C)[C@@H](O)CC(C)(C)C2 | 0.548
CC(C)c1nc2c(c3c1[C@@H](c1ccc(F)cc1)OC31CCCC1)[C@@H](O)CC(C)(C)C2 | 0.796
